As usually defined, the IC50 is the concentration needed to halve the response being measured.

The subject of experiment [1] is allergen-induced airway inflammation and bronchial hyperresponsiveness. The experiment is described as follows: Mouse model of asthma (OVA), inhalation, short exposure challenge. The settings on record: aerosol, short-term exposure; Compound I 0.03 and 0.3 mg/ml, fluticasone 1 mg/ml; vs placebo, p<0.0001. The class given is in vivo, mice. The procedure:
(§1) In order to study the modulation of airway inflammation by intraperitoneal injection of Compound I, mice were sensitized with 10 μg ovalbumin alumin-adsorbed (aluminject, perbio, Erembodegem, Belgium) injected intraperitonealy at days 0 and 7 and were subsequently exposed to OVA 1% or PBS aerosols for 30 minutes from day 21 to 24. Intraperitoneal injections were performed 30 min before OVA inhalations. The different injected formulations were: cremophor 10%-DMSO 10%-PBS 80%- Compound I30 mg/kg (suspension); cremophor 10%-DMSO 10%-PBS 80%- Compound I3.75 mg/kg (solution); HPβCD 200 mM Compound I 7.5 mg/kg (solution); HPβCD 200 mM. All results were compared to mice sensitized and exposed to PBS and OVA treated with PBS injected intraperitonealy. In order to study the modulation of airway inflammation by inhaled Compound I, mice were sensitized as described previously. Two protocols referred to as short exposure challenge and long-term exposure challenge were used. In the short exposure challenge, mice were exposed to aerosols of Compound I-complex at concentrations of 0.03 and 0.3 mg/ml of active compound in aqueous solution of from day 21 to 27 during 30 min in a Plexiglas exposure chamber (30×20×15 cm). Mice were exposed to OVA aerosols 30 minutes after the Compound I inhalation from day 23 to 27. In the so called long-term inhalation challenge, mice were exposed to aerosols of Compound Iat concentrations of 0.03 and 0.3 mg/ml complexed with HPβCD in an aqueous solution during 30 min five days odd weeks and to OVA aerosols 3 days odd weeks for 11 weeks. No inhalations were performed during even weeks.
The aerosol were produced by using an ultrasonic nebuliser SYSTAM (Systeme Assistance Medical, Le Ledat, France), the vibration frequency of which is 2.4 MHz with variable vibration intensity and ventilation levels. Vibration intensity was fixed in position 6 and the ventilation level was 25(ν1/2)1/min.
Twenty-four hours after the last allergen exposure, the bronchial hyper responsiveness was determined by measuring the Penh using a barometric plethysmograph as proposed by Hamelmann, E., et al., Am. J Respir. Crit. Care Med. 156 (1997) 766-775). The Penh was measured at baseline and 5 min after the inhalation of increasing doses (25, 50, 75 and 100 mM) of methacholine (Mch).
Immediately after the assessment of airway responsiveness, mice were sacrificed and 1 ml of PBS free of ionised calcium and magnesium but supplemented with 0.05 mM sodium EDTA was instilled 4 times via a tracheal cannula and recovered by gentle manual aspiration. The recovered bronchoalveolar lavage fluid (BAL) was centrifuged (1800 rpm for 10 min at 4° C.). […] A value from 0 to 3 per criteria was adjudged to each tissue section scored. […]

Experiment [2] concerns allergen-induced airway inflammation. The experiment is described as follows: Mouse model of asthma (OVA), inhalation, long-term exposure challenge (11 weeks). The class given is in vivo, mice. The settings on record: aerosol, long term allergen exposure (11 weeks). The procedure: as §1, with “In the so called long-term inhalation challenge, mice were exposed to aerosols of Compound Iat concentrations of 0.03 and 0.3 mg/ml complexed with HPβCD in an aqueous solution during 30 min five days odd weeks and to OVA aerosols 3 days odd weeks for 11 weeks. No inhalations were performed during even weeks.” left out
Twenty-four hours after the last allergen exposure, the bronchial hyper responsiveness was determined by measuring the Penh using a barometric plethysmograph as proposed by Hamelmann, E., et al., Am. […] The Penh was measured at baseline and 5 min after the inhalation of increasing doses (25, 50, 75 and 100 mM) of methacholine (Mch).
Immediately after the assessment of airway responsiveness, mice were sacrificed and 1 ml of PBS free of ionised calcium and magnesium but supplemented with 0.05 mM sodium EDTA was instilled 4 times via a tracheal cannula and recovered by gentle manual aspiration. […] A value from 0 to 3 per criteria was adjudged to each tissue section scored. […]

A further experiment deals with Human MMP-14 (Homo sapiens, UniProt P50281). The experiment in a line: MMP enzymatic activity, modified fluorescence assay (DNP-substrate). The settings on record: read-out: IC50 MMP-14. The class given is biochemical. The procedure: (§2) IC50 values are measured by an in vitro assay for MMP enzymatic activity. Such an assay is described by Stack, M. S., and Gray, R. D., J. Biol. Chem. 264 (1989) 4277-4281. This assay is based on the determination of MMP enzymatic activity on a dinitrophenol substrate and fluorescence measurement of the substrate after cleaving by MMPs.
(§3) Inhibitors were tested in a modified fluorescence-assay as described by Stack, M. S., and Gray, R. D., J. Biol. Chem. 264 (1989) 4277-4281. Human MMP-1, MMP-2, MMP-3, MMP-9 and MMP-14 are commercially available (e.g. Calbiochem). The pro-enzymes were activated with 1 mM APMA (incubation for 30 min at 37° C.) immediately before testing. Activated enzyme is diluted to 100 ng/ml in incubation buffer (50 mM Tris, 100 mM NaCl, 10 mM CaCl2, pH 7.6). The compounds were dissolved in 100% DMSO. […] DNP-substrate (Bachem M1855, 255 μM) was dissolved in incubation buffer.
(§4) The test tube contains 970 μl incubation buffer, 10 μl inhibitor solution and 10 μl enzyme solution. The reaction was started by adding the 10 μl substrate solution.
(§5) Kinetics of activity were determined using excitation at 280 nm and emission at 346 nm measured on a FluoroMax™ (Spex Industries Inc., Edison, N.J., USA) over 120 sec. DMSO has been used as control instead of inhibitor solution.
(§6) IC50's are defined as the concentration of inhibitor that gives a signal that is 50% of the positive enzyme control.

A further experiment has as its target Human MMP-9 (Homo sapiens, UniProt P14780). Described as above. The experiment is classed as biochemical. The settings on record: read-out: IC50 MMP-9. The protocol: as §2, §3, §4, §5, §6

Human MMP-9, sequence (P14780 107-707 limits assumed): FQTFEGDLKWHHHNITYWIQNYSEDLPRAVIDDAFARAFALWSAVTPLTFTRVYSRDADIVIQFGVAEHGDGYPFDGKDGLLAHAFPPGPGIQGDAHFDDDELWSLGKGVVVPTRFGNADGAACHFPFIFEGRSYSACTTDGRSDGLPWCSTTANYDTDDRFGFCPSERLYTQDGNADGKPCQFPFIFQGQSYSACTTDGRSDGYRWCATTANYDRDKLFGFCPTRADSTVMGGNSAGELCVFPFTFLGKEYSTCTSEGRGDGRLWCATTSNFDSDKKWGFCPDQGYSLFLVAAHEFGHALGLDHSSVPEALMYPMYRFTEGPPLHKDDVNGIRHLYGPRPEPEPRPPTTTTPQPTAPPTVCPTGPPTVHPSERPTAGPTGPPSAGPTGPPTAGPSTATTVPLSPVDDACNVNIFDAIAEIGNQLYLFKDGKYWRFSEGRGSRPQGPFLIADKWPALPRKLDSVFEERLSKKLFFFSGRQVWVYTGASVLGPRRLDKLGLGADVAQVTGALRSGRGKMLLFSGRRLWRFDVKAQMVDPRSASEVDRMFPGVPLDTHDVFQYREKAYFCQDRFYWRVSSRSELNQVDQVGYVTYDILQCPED

As to `CCC(=O)O[C@]1(C(=O)SCF)[C@H](C)C[C@H]2[C@@H]3C[C@H](F)C4=CC(=O)C=C[C@]4(C)[C@@]3(F)[C@@H](O)C[C@@]21C`, the “eosinophilic inflammation in BAL” value in experiment [1] is given as “significant decrease”. For the same compound, in experiment [2] (p<0.0001), the peribronchial inflammation score result was “significantly decreased”. Further, in experiment [2] (p<0.001), the BAL eosinophilia result is recorded as “significantly decreased”. For the same compound, in experiment [2] (p<0.01), the “tissue eosinophil infiltration score” value is reported as “decreased”.

Turning to `CNC(=O)[C@H](Cc1ccccc1)NC(=O)[C@H](CC(C)C)[C@H](CSc1cccs1)C(=O)NO` [Batimastat, reference compound], the IC50 came out at 19 nM at Human MMP-14 and 23 nM on Human MMP-9.

For the origin of these results see patent publication US20070225253A1, “Use of a trioxopyrimidine for the treatment and prevention of bronchial inflammatory diseases” (priority 2004, published 2007).
